Here are results for one compound from patent US7196083B2, “Heteropolycyclic inhibitors of protein kinases” (priority 2000, dated 2007).

One data set in a line: in vivo. Conditions: mouse, ip, 2 mg/kg. As to the method:
A pharmacokinetics (PK) study was performed on KP-23172 formulated in 20% propylene glycol and 20% hydroxypropyl-B-cyclodextrin, administered intraperitoneally (i.p.) at 2 mg/kg. Plasma samples obtained at various time points were sent to BRI Biopharmaceutical Research Inc., Burnaby, BC, Canada for analysis by Liquid Chromatography/Mass Spectroscopy (LC/MS). Electrospray LC/MS/MS data was acquired in the multiple-reaction-monitoring mode (MRM) in which m/z 225.00>114.20 was monitored for KP-23172 as its [M+H]^+ transition to an ion fragment of m/z 114.2. A mass ion transition of m/z 300.00>165.10 was being monitored for codeine as an internal standard. MRM chromatograms of mouse plasma standard curve samples spiked with 1 and 5000 ng/ml were performed as controls. Plasma calibration standard curves were established based on 1/y linear regression of plasma concentrations of KP-23172 against peak area ratio to the internal standard. The calculated KP-23172 plasma concentrations were based on the assay of 0.05 ml of plasma volume used in the assay and reported as ng/ml concentration. A summary of the KP-23172 plasma concentrations observed in 20 samples from 4 mice is presented in FIG. 2 as a semi-logarithmic plot of the plasma concentrations against blood collection times.

In a further data set the test system is PKB. Kind of data set: Time course kinase assay in U87 cells, immunoprecipitated with PKB/PH specific antibody. The format is cell-based, human. Conditions: for PKB activity, % of control: 5 uM, background about 15% of control. As to the method:
The compound was added to culture at mid-logarithmic growth which were harvested at specific time intervals. In preparation for this assay, each cell line was seeded at a density of 3 times 1,000,000 cells per plate onto 150 mm culture dishes and allowed to establish o/n at 37 deg C. A confluency of 50–60% was obtained to ensure maximal drug penetration into each cell. Once the cells were adherent to the culture plates, there were treated with PKB inhibitor KP-23172 for a final conc. of 5 uM. Each culture plate was lysed on ice at specific time intervals using 1% NP-40 lysis buffer containing various protease inhibitors; 10 ug/uL aprotinin, 10 ug/ul leupeptin, 1 ug/ul pepstatin, 1 M beta-glycerophosphate and 100 mM PMSF. The resulting lysates were centrifuged at 15K×g at 4 deg C. for 5 min and then assayed for its protein conc. using Bradford's Reagent and absorbance measurements at 595 nm. […] Each sample was then centrifuged at 14K×g for 2 min at 4 deg C. and the s/n aspirated off. Beads were thoroughly washed twice with lysis buffer, then with Assay Dilution Buffer. When any unbound proteins have been completely washed away from the beads, 30 uL of ADB was added along with 10 uL of PDB substrate. Tubes were immediately incubated in 30 deg. C. water baths after the kinase reaction was allowed to commence with the addition of 10 uL assay (gamma32P)ATP. […] All vials were counted for one minute in the scintillation counter. To determine the potency of KP-23172, U87 cells were plated onto 150 mm petri plates and treated with 5 uM KP-23172. After incubation at 37 deg C. under 5% CO2 for the specified time, cells were lysed and the supernatant extracted for kinase analysis. All samples were immunoprecipitated with PKB/PH specific antibody and kinase activity. measured using a short amino acid peptide as the substrate. […] Background was about 15% of control.

A further data set has as its system M3 murine melanoma cells. The data set is described as follows: [3H] thymidine uptake cell proliferation assay, M3. Conditions: Mus musculus, read-out: Cell Proliferation Effects (IC50 (nM)). The format is cell-based.
Data set [1] relates to NIH-3T3 (murine embryonic fibroblasts). Kind of data set: [3H] thymidine uptake cell proliferation assay, NIH3T3. The format is cell-based. Conditions: Mus musculus; NIH3T3, non-tumorigenic cell line; read-out: Cell Proliferation Effects (IC50 (nM)).
The subject of data set [2] is LS-180 (human colon carcinoma). The data set is described as follows: [3H] thymidine uptake cell proliferation assay, LS180. The format is cell-based. Conditions: read-out: Cell Proliferation Effects (IC50 (nM)).
Data set [3] in a line: In vivo xenograft model, tumour growth. Conditions: 2.5 mg/kg daily i.p. in DMSO, day 15, athymic (Rag2M) female mice; control 100%. As to the method: Mice were inoculated subcutaenously in the rear flank with […] (LS180) and then injected daily with KP-23172 i.p. Tumour measurements were taken daily. A group of 8 athymic (Rag2M) female mice were used as a murine allograft model for the test compound, which was administered in DMSO. 8 control mice received no test compound. Mice were inoculated with tumour cells subcutaneously in the rear flank and then injected with test compound daily intraperitoneally. Tumors were measured and the size calculated, with the objective being a reduction in tumor growth compared to controls. […] Results are illustrated in FIG. 4.

In a further data set the target is T1, PKB alpha (Homo sapiens, UniProt P31749).
T1 construct: endogenous in cells; host or cells: U87 cells
Kind of data set: Kinase assay in U87 cells using anti PKB alpha antibody. The format is cell-based. Conditions: U-87 MG, 1 h, after 60 min, read-out: PKB alpha isoform activity, reduction of activity to. As to the method:
In preparation for this assay, each cell line was seeded at a density of 3 times 1,000,000 cells per plate onto 150 mm culture dishes and allowed to establish o/n at 37 deg C. A confluency of 50–60% was obtained to ensure maximal drug penetration into each cell. Once the cells were adherent to the culture plates, there were treated with PKB inhibitor KP-23172 for a final conc. of 5 uM. Each culture plate was lysed on ice at specific time intervals using 1% NP-40 lysis buffer containing various protease inhibitors; 10 ug/uL aprotinin, 10 ug/ul leupeptin, 1 ug/ul pepstatin, 1 M beta-glycerophosphate and 100 mM PMSF. The resulting lysates were centrifuged at 15K×g at 4 deg C. for 5 min and then assayed for its protein conc. using Bradford's Reagent and absorbance measurements at 595 nm. Equal amounts of protein were transferred to a new centrifuge tube and treated with anti-PKB-PH antibody (Kinetek #XXP-021), anti-PKBalpha antibody (Signal Transduction #67220), or anti-PKB gamma antibody (UBI 306-607) and incubated end over end at 4 deg C. […] All vials were counted for one minute in the scintillation counter.
A kinase assay in cells was also performed using anti PKB alpha and gamma antibodies in order to determine any inhibition of the isoforms by KP-23172. U87 cells were treated with 5 uM compound, lysed, and the resulting supernatant was analyzed for any changed in PKB activity. […]

T1 sequence (P31749 whole entry): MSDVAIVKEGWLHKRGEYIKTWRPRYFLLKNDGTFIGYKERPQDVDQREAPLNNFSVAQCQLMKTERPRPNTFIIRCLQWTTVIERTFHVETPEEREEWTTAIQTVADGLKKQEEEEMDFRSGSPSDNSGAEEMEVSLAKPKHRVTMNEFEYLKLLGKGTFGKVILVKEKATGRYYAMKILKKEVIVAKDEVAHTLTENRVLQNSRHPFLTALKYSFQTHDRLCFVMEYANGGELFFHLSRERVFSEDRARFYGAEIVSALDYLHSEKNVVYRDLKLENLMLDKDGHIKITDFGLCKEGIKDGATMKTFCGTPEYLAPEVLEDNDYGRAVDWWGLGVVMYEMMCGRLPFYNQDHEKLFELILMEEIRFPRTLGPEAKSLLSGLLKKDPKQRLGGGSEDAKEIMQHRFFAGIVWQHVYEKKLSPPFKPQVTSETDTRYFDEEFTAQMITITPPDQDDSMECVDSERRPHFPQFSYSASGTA

For `O=C1c2ccccc2-c2nc3nnnn3nc21` [KP-23172], the concentration at 15 min in “in vivo” is roughly 500 ng/mL. The same compound registered a concentration at 60 min in “in vivo” of roughly 100 ng/mL. For the same compound, the half-life entry in “in vivo” was “about ½”. In addition, the “PKB activity, % of control” value in the data set on PKB (after 15 min) was 80.4%; in the data set with PKB (after 30 min) it was 23.8%; with PKB (after 60 min), 38.5%. The “levels of the kinase in time course kinase assay” value with PKB (5 iM, after 60 minutes) is on record as “significantly decreased levels of the kinase”. For the same compound, the IC50 came out at 25 nM in the data set on M3 murine melanoma cells, 150 nM in data set [1] and 80 nM in data set [2]. This compound also displayed a tumor take rate in data set [3] of 62.5%. The activity at 5 µM on PKB alpha was 29.6%.
